Experimental data published in ChEMBL document CHEMBL1201862, “PubChem BioAssay data set” (2004).
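Compound exposure: 48 hours, 5 concentrations, 96-well plates. Here, GI50 denotes the concentration required for 50% inhibition of growth.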 Activity calls are given as the source filed them. Rule as the data show it: active = GI50 up to about 1.1 µM and inactive = higher.

Experiments:
Experiment in all cases: NCI tumour cell line growth inhibition, 48 h
NCI-H226 = tested on: NCI-H226
IGROV-1 = tested on: IGROV-1
NCI-H23 = tested on: NCI-H23
HCC 2998 = tested on: HCC 2998
MDA-N = tested on: MDA-N
CAKI-1 = tested on: CAKI-1
MOLT-4 = tested on: MOLT-4
CCRF-CEM = tested on: CCRF-CEM
SNB-75 = tested on: SNB-75
786-0 = tested on: 786-0
M14 = tested on: M14
SF-539 = tested on: SF-539
LOX IMVI = tested on: LOX IMVI
OVCAR-5 = tested on: OVCAR-5
NCI/ADR-RES = tested on: NCI/ADR-RES
NCI-H460 = tested on: NCI-H460
KM12 = tested on: KM12
SK-OV-3 = tested on: SK-OV-3
COLO 205 = tested on: COLO 205

Measured: GI50

Cc1nc(O)nc(NNCc2ccc(Cl)cc2)c1C(=O)Nc1ccc(Cl)cc1
inactive: NCI-H226 > 100 µM | IGROV-1 > 100 µM | NCI-H23 > 100 µM | HCC 2998 > 100 µM | MDA-N 81.1 µM | CAKI-1 > 100 µM | MOLT-4 > 100 µM | CCRF-CEM > 100 µM | SNB-75 > 100 µM | 786-0 > 100 µM | M14 > 100 µM | SF-539 > 100 µM | LOX IMVI > 100 µM | OVCAR-5 > 100 µM | NCI/ADR-RES > 100 µM | NCI-H460 > 100 µM | KM12 > 100 µM | SK-OV-3 > 100 µM | COLO 205 > 100 µM

COC(=O)C1=C(O)C(C(=O)OC)[C@]2(O)[C@H](C(=O)OC)[C@H]1C[C@@H](c1ccc(Cl)cc1)[C@H]2C(=O)OC (stereo partly specified)
inactive: NCI-H226 8.18 µM | IGROV-1 14.5 µM | NCI-H23 7.18 µM | HCC 2998 6.79 µM | MDA-N 3.78 µM | CAKI-1 7.73 µM | MOLT-4 3.64 µM | CCRF-CEM 2.3 µM | SNB-75 13.6 µM | 786-0 6.41 µM | M14 4.72 µM | SF-539 4.22 µM | LOX IMVI 10.7 µM | OVCAR-5 14.5 µM | NCI/ADR-RES 3.29 µM | NCI-H460 5.45 µM | KM12 11.5 µM | SK-OV-3 2.7 µM | COLO 205 10 µM

Cc1nc(O)nc(N(CCO)/N=C/c2ccc(Cl)cc2)c1C(=O)Nc1ccc(Cl)cc1
inactive: NCI-H226 72.6 µM | IGROV-1 > 100 µM | NCI-H23 > 100 µM | HCC 2998 > 100 µM | MDA-N > 100 µM | CAKI-1 > 100 µM | MOLT-4 > 100 µM | CCRF-CEM > 100 µM | SNB-75 55.2 µM | 786-0 > 100 µM | M14 87.3 µM | SF-539 > 100 µM | LOX IMVI > 100 µM | OVCAR-5 > 100 µM | NCI/ADR-RES > 100 µM | NCI-H460 > 100 µM | KM12 > 100 µM | SK-OV-3 58.2 µM | COLO 205 > 100 µM

COc1cc2c(cc1O)[C@@H]1Cc3c(cc(OC)c(OC)c3Oc3cc4c(cc3OC)CCN(C)[C@@H]4Cc3ccc(O)cc3)[C@H](C2)N1C
inactive: NCI-H226 > 100 µM | IGROV-1 82.2 µM | NCI-H23 > 100 µM | HCC 2998 31 µM | MDA-N 19 µM | CAKI-1 > 60.3 µM | MOLT-4 31 µM | CCRF-CEM 28.6 µM | SNB-75 20.6 µM | 786-0 36.6 µM | M14 18.2 µM | SF-539 23.5 µM | LOX IMVI 18.5 µM | OVCAR-5 > 100 µM | NCI/ADR-RES > 100 µM | NCI-H460 53.7 µM | KM12 45.1 µM | SK-OV-3 > 94 µM | COLO 205 19.4 µM
